Key:
Format in all cases: in vivo
Helmintosporium teres = assay: Fungicidal activity against Helmintosporium teres on barley; settings: barley cv. Gemini, scale 0 (plant completely infected) to 100 (healthy plant)
Procedure: Determination of the Fungicidal Activity of the Compounds Having Formula (I) Against Helmintosporium Teres on Barley
Leaves of barley plants (cultivar Gemini), grown in pots in a conditioned environment (20±1° C., 70% of R.H.), were treated by spraying both sides of the leaves with the compounds under examination, dispersed in a […] solution at 20% by volume of acetone.
After remaining 5 days in a conditioned environment, the plants were sprayed on both sides of the leaves with an aqueous suspension of conidia of Helmintosporium teres (50,000 conidia per cm^3 (adding Tween 20-1 drop/100 ml).
The plants were then kept in a controlled environment during the incubation period of the fungus (1 day wet room for infection, 3 days in a cell with R.H. 70% and […] for the incubation period, 3 days for wet room evasion, 12 days biological cycle).
At the end of this period (12 days), the fungicidal activity was evaluated according to an evaluation percentage scale from 0 (plant completely infected) to 100 (healthy plant).

Puccinia recondita = assay: Preventive fungicidal activity (5 days) against Puccinia recondita on wheat; settings: for P5 activity NT (parts developed during the test) / P5 activity T (parts treated directly with the products): wheat Salgemma, inoculation 5 days after spraying, reduction of diseased leaf area vs non-treated
Procedure: Determination of the Preventive Fungicidal Activity (5 Days) Against Puccinia recondita on Wheat
Leaves of wheat plants of the Salgemma variety, grown in pots in a conditioned environment at 20° C. and 70% of Relative Humidity (RH) were treated by spraying both sides of the leaves with the compound under examination (see Table 4 hereunder) dispersed in a hydroacetone solution at 20% by volume of acetone.
After remaining 5 days in a conditioned environment, the plants were sprayed on both sides of the leaves with an aqueous suspension of conidia of Puccinia recondita (2 mg of inoculum per 1 ml of solution for infection).
After spraying, the plants were kept in a humidity-saturated environment at a temperature ranging from 18 to 24° C. for the incubation period of the fungus (1 day).
At the end of this period, the plants were put in a greenhouse with a relative humidity (RH) of 70% and at a temperature of 18-24° C. for 14 days.
At the end of this period, the external symptoms of the pathogen appeared and it was therefore possible to proceed with the visual evaluation of the intensity of the infection, both on the parts treated directly with the products (T) and on the parts developed during the implementation of the test (NT).
The fungicidal activity is expressed as a percentage of the reduction, with respect to non-treated seedlings (comparison), in the area of the leaf affected by the disease (100=full effectiveness; 0=zero effectiveness).

Plasmopara viticola = assay: Preventive activity (7 days) against Plasmopara viticola on vines; settings: vine Merlot, inoculation 7 days after treatment, reduction of diseased leaf area vs non-treated
Procedure: Determination of the Preventive Activity (7 Days) of the Compounds Having Formula (I) Against Plasmopara viticola on Vines
Leaves of vine plants of the Merlot variety, grown in pots, in a conditioned environment, (20±1° C., 70% of R.H.) were treated by spraying both sides with the compound under examination.
7 days after the treatment, the plants were inoculated with an aqueous suspension of spores of Plasmopara viticola (200,000 spores/cc) by spraying both sides of the leaves with a compressed air gun.
After remaining 24 hours in a humidity-saturated environment, at 21° C. the plants were transferred for an incubation period (7 days) in a conditioned environment at 70% of R H. and at 24° C.
At the end of this period, the external symptoms of the pathogen appeared and it was therefore possible to proceed with the evaluation of the intensity of the infection.
The fungicidal activity was expressed as the reduction percentage, with respect to non-treated seedlings, in the area of the leaf affected by the disease (100=full effectiveness; 0=zero effectiveness).

**Q.** For `CC1(C)CC(NC(=O)c2cccc(NC=O)c2O)CC(C)(C)C1` [CR1, 3-formylamino-2-hydroxy-N-(3,3,5,5-tetramethylcyclohexyl)benzamide, reference compound], which P7 activity (Helmintosporium teres; 125 ppm) is on record?
**A.** Its P7 activity is 5%.

**Q.** What about the P7 activity (Helmintosporium teres; 250 ppm) of the same molecule?
**A.** Its P7 activity is 15%.

**Q.** What about the “P5 activity NT (parts developed during the test)” value (shortened to “P5 activity NT”) (Puccinia recondita; 125 ppm) of the same molecule?
**A.** Its value is 35%.

**Q.** And the “P5 activity T (parts treated directly with the products)” value (“P5 activity T” for short) (Puccinia recondita; 125 ppm)?
**A.** The value was 50%.

**Q.** And the “P5 activity NT” value (Puccinia recondita; 250 ppm)?
**A.** The value was 50%.

**Q.** What about the “P5 activity T” value (Puccinia recondita; 250 ppm) of the same molecule?
**A.** The value was 65%.

**Q.** What about the P7 activity (Plasmopara viticola; 30 ppm) of the same molecule?
**A.** The P7 activity was 50%.

**Q.** And the P7 activity (Plasmopara viticola; 125 ppm)?
**A.** Its P7 activity is 65%.

**Q.** Which P7 activity (Helmintosporium teres; 125 ppm) does the source give for `CC(C)C(=O)OCOc1c(NC=O)cccc1C(=O)NC1CC(C)(C)CC(C)(C)C1` [Compound 1, 3-formylamino-2-[(2-methyl-propanoyl-oxy)methoxy]-N-(3,3,5,5-tetramethylcyclohexyl)benzamide] here?
**A.** Its P7 activity is 75%.

**Q.** And the P7 activity (Helmintosporium teres; 250 ppm)?
**A.** Its P7 activity is 80%.

**Q.** And the “P5 activity NT” value (Puccinia recondita; 125 ppm)?
**A.** Its value is 60%.

**Q.** What about the “P5 activity T” value (Puccinia recondita; 125 ppm) of the same molecule?
**A.** Its value is 70%.

**Q.** And the “P5 activity NT” value (Puccinia recondita; 250 ppm)?
**A.** Its value is 65%.

**Q.** What about the “P5 activity T” value (Puccinia recondita; 250 ppm) of the same molecule?
**A.** The value was 75%.

**Q.** What about the “fungicidal activity (full activity)” value (Puccinia recondita; dosage of 250 ppm, T/NT not specified) of the same molecule?
**A.** The value was 100%.

**Q.** And the P7 activity (Plasmopara viticola; 30 ppm)?
**A.** Its P7 activity is 100%.

**Q.** What about the P7 activity (Plasmopara viticola; 125 ppm) of the same molecule?
**A.** The P7 activity was 100%.

**Q.** Which results are given for `CC(C)C(=O)OCOc1c(C(=O)NC2CC(C)(C)CC(C)(C)C2)cccc1N(C=O)COC(=O)C(C)C` [Compound 4, 3-(N′-formyl-N′-[(2-methylpropanoyl-oxy)methyl]amino)-2-[(2-methylpropanoyloxy)methoxy]-N-(3,3,5,5-tetramethylcyclohexyl)-benzamide]?
**A.** P5 activity NT (parts developed during the test) (Puccinia recondita; 125 ppm): 65%; P5 activity T (parts treated directly with the products) (Puccinia recondita; 125 ppm): 70%; P5 activity NT (parts developed during the test) (Puccinia recondita; 250 ppm): 70%; P5 activity T (parts treated directly with the products) (Puccinia recondita; 250 ppm): 80%; P7 activity (Plasmopara viticola; 30 ppm): 100%; P7 activity (Plasmopara viticola; 125 ppm): 100%

Source: patent US11365175B2, “Aromatic amides having a fungicidal activity, their agronomic compositions and relative preparation method” (ISAGRO S.p.A., priority 2017, dated 2022)
